Read-outs that look alike come from different tables or passages of the source.
Molecular target: Phi29-type DNA polymerase (Bacillus phage phi29, UniProt P03680)
Test: Dissociation constants of nucleotides with polymerase by fluorescence assays
Type: binding
Settings: for Kd: fluorescence assays, natural and unincorporable nucleotides
Description: Disclosed herein is a determination of a number of enzymatic parameters including substrate binding and dissociation constants (examples in Table 1) under a variety of conditions and with a variety of nucleotide analogs (NTPs, N6Ps, tagged N6Ps, α-thio and α,β-methylene nucleotide polyphosphates). In addition to these compounds, disclosed herein are fluorescent nucleotide analogs and unincorporable (α-thio) nucleotides that were designed and synthesized for the polymerase tests to develop new Nanopore-SBS approaches as described below.

Chain of Phi29-type DNA polymerase (P03680 whole entry): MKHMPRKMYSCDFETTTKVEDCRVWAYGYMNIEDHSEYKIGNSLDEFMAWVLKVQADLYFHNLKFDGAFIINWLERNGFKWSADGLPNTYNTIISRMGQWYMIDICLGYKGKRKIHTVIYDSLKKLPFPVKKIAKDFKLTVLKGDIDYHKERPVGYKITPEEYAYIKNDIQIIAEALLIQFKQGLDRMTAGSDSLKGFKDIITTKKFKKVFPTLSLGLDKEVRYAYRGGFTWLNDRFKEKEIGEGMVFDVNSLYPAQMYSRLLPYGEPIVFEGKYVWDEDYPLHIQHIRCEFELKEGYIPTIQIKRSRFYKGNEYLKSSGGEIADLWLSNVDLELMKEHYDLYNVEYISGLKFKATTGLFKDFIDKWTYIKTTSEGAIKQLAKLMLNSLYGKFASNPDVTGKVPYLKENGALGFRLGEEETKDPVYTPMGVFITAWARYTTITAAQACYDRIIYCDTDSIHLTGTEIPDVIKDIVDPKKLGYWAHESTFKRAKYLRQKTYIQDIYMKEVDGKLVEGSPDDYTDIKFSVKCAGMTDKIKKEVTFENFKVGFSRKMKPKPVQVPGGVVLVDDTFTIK

Row | Compound | Kd [nM] | binding to the polymerase in the ternary complex (in words, compared with the other nucleotides) | Kd (read-out: KD) [nM]
1 | Nc1ccn(C2CC(O)C(COP(O)(=S)OP(=O)(O)OP(=O)(O)O)O2)c(=O)n1 (stereo not drawn) [2′-dCTP-αS (Rp-isomer), 2′-dCTP-αS] | 750 | – | –
2 | Nc1ccn(C2CC(O)C(COP(O)(=S)OP(=O)(O)OP(=O)(O)O)O2)c(=O)n1 (stereo not drawn) [2′-dCTP-αS (Sp-isomer), 2′-dCTP-αS] | 1 | – | –
3 | Nc1nc2c(ncn2C2CC(O)C(COP(O)(=S)OP(=O)(O)OP(=O)(O)O)O2)c(=O)[nH]1 (stereo not drawn) [2′-dGTP-αS (Rp-isomer), 2′-dGTP-αS] | 910 | – | –
4 | Nc1nc2c(ncn2C2CC(O)C(COP(O)(=S)OP(=O)(O)OP(=O)(O)O)O2)c(=O)[nH]1 (stereo not drawn) [2′-dGTP-αS (Sp-isomer), 2′-dGTP-αS] | 6 | – | –
5 | Nc1ccn(C2CC(O)C(COP(=O)(O)OP(=O)(O)OP(=O)(O)O)O2)c(=O)n1 (stereo not drawn) [dCTP, reference compound] | ~5 | – | –
6 | Nc1ccn(C2CC(O)C(COP(=O)(O)CP(=O)(O)OP(=O)(O)O)O2)c(=O)n1 (stereo not drawn) [dCp-CH2-pp, reference compound] | 25000 | do not bind as tightly | –
7 | Nc1nc2c(ncn2C2CC(O)C(COP(=O)(O)OP(=O)(O)OP(=O)(O)O)O2)c(=O)[nH]1 (stereo not drawn) [dGTP, reference compound] | 6 | – | –
8 | αS-dG6P-N3 [αS-dG6P-N3 (Rp-isomer)] | – | – | 670

— patent US12467085B2, “High accuracy nanopore-based single molecule sequencing by synthesis with tagged nucleotides” (priority 2019, dated 2025)
